Assay results: patent US20040209239A1, “Methods and compositions fir identifying episomal dna virus infection treatment” (priority 2001, published 2004)

Columns and labels:
OriP = OriP plasmid maintenance in cells; format: cell-based, Epstein-Barr virus; conditions: for OriP maintenance, dependence on nonamer binding sites: D98/HR1 cells transfected with OriP wt or OriPΔa,b,c, 3 weeks after sorting, Southern analysis of Hirt lysates; for plasmid maintenance of OriP: FIG. 4 and FIG. 5C
Excerpt: A green fluorescent protein (GFP) reporter gene is inserted into the polylinker site of plasmid pREP10 (Invitrogen), which contains the EBV oriP and EBNA-1 under the control of its weak, naturally-occurring viral promoter. The GFP reporter gene allows for rapid flow cytometric (FACS) analysis to determine the percent of cells carrying the DNA vector. FACS is also used to cell sort, i.e., to obtain a homogeneous population of cells all expressing GFP and therefore carrying the vector.
The recombinant episomal plasmid GFP-REP10 is transfected into recipient mammalian or avian host cells and cells are sorted after 48 hours to obtain a homogeneous population (100%) expressing the GFP label. Test compounds, individually or in combination, or controls are applied to samples of the culture medium to test for the effect on GFP positive cells. Cells treated with test compounds, or with positive and/or negative controls, are assayed for the rate of loss of GFP over several days to weeks. These rates of loss are compared for each test compound with the relevant controls to determine novel test compounds that enhance or decrease episomal maintenance in the cell.
Confirmation of episomal DNA is determined at the experimental endpoint of between 3 to 5 weeks, using the HIRT extraction and Southern blotting procedure, described in e.g., Yates et al, 2000, J. Virol. 74, 4512-4522.
In one study, D98/HR1 cells were transfected with OriP wt or OriPΔa,b,c, GFP-selected by FACS, and cultured in the presence of niacinamide (PARP inhibitor), hydroxyurea (PARP stimulator), or 3-AB (PARP inhibitor). OriP maintenance was assayed 3 weeks after sorting by Southern analysis of Hirt lysates.

EBV genome = test: Stability of the EBV genome in cells; format: cell-based, Epstein-Barr virus; conditions: FIG. 5A and FIG. 5B
episomal plasmids = test: Transient replication of episomal plasmids; format: cell-based
TRF1 = test: ChIP assay of TRF1 association with OriP in D98/HR1 cells; format: cell-based; conditions: treated D98/HR1 cells
Procedure: (§1) To determine if telomere associated proteins EBNA1, TRF2 and Tankyrase associate with EBV oriP episomes in naturally infected cell lines, the chromatin immunoprecipitation) (CHIP) assay was used with EBV positive RAJI Burkitt lymphoma cell lines that contain ˜5-25 copies of episomal EBV. Chromatin immunoprecipitation was performed as described in Galande, S. & Kohwi-Shigematsu, 1999 J. Biol. Chem. 274, 20521-20528.
(§2) Briefly, asynchronous RAJI cells were cross-linked with formaldehyde, sonicated to generate chromatin DNA fragments of 400 bp average size, and then immunoprecipitation with various antibodies to FLAG-M2 (Sigma), EBNA1, Tankyrase, or TRF2. DNA fragments isolated from immunoprecipitation protein-DNA complexes (three-fold dilutions for each set of antibodies) were then amplified for 24 cycles by PCR with primer pairs specific for the DS region of EBV oriP (corresponding to EBV nucleotides 8586-9206, nucleotides 1-621 SEQ ID NO: 1), or for control EBV sequences surrounding the BRLF1 promoters (nucleotides 106,094-106,420, nucleotides 1-317 SEQ ID NO: 2), over 90 kb away from oriP and unlikely to share OriP binding proteins.
(§3) EBNA1, hRap1,and TRF1 association with OriP were determined by ChIP assay in cells that were treated with hydroxyurea or niacinamide. […]

histone H3 = test: OriP-associated histone modification by ChIP assay in Akata cells; format: cell-based
Procedure: Akata cells were cultured without treatment, with H2O2, hydroxyurea (HU) or niacinamide as indicated above each lane. OriP-associated histone modification was measured by ChIP assay with antibodies specific for Flag, Acetylated H3, acetylated H4, or S10 phosphorylated H3.

EBNA1 [1] = test: DS DNA affinity chromatography in the presence or absence of NAD; format: binding, Epstein-Barr virus; conditions: 1 mM NAD
Procedure: To identify cellular proteins that mediate EBNA1 functions at OriP, a stable HeLa cell derivative (SL1) was established expressing epitope tagged EBNA1 (HA-EBNA1) and episomal OriP. SL1 cells were generated by retroviral transformation of HeLa S3 cells with HA-EBNA1 lacking Gly-Ala repeats (Δ102-325). HeLa and SL1 cell nuclear extracts were prepared by the method of Dignam, J. D. et al, 1983 Nucl. Acids Res. 11, 1475-1489. Nuclear pellets were solubilized by sonication in RIPA buffer (1% Triton×100, 0.1% sodium deoxycholate, 140 mM NaCl, 50 mM Hepes (pH 7.5), 1 mM EDTA, 1 mM DTT, and protease inhibitors-1 mM PMSF, 1 mM benzamidine, 10 μg/ml aprotinin, 20 μg/ml leupeptine, 1 μg/ml pepstatin, 25 μg/ml TLCK and 50 μg/ml TPCK). Sonicated nuclear pellets were clarified by centrifugation at 39,000×g for 30 minutes. This solubilized nuclear pellets were combined with nuclear extract (1:1) made 6 mM MgCl2, and preincubated with 400 μg/ml sonicated herring sperm DNA for 30 minutes. Biotinylated PCR fragments were coupled to streptavidin conjugated magnetic bead (Dynal) and then incubated nuclear extracts for 45 minutes at 25° C. The bound material was washed 4 times in D150 buffer (20 mM HEPES, pH7.9, 20% glycerol, 0.2 mM EDTA, 150 mM KCl, 1 mM DTT, 1 mM PMSF) and then eluted with D1000 (same as above except 1000 mM KCl). […]

EBNA1 [2] = test: EBNA1 binding to DS in Akata cells; format: cell-based, Epstein-Barr virus; conditions: preliminary results
Procedure: (§4) EBNA1 and MCM3 binding to DS were assayed in Akata cells cultured with no treatment, with hydroxyurea, or with niacinamide. […] Future quantification of these preliminary results will be necessary to determine the significance of MCM3 and other MCM complex components interaction with OriP.

hRap1 = test: ChIP assay of hRap1 association with OriP in D98/HR1 cells; format: cell-based, human; conditions: treated D98/HR1 cells
MCM3 = MCM3 binding to DS in Akata cells; format: cell-based; conditions: preliminary results
Procedure: as §4

EBNA1 [3] = test: ChIP assay of EBNA1 association with OriP in D98/HR1 cells; format: cell-based, Epstein-Barr virus; conditions: treated D98/HR1 cells
Procedure: as §1, §2, §3

SMILES	long term maintenance of episomal plasmids (OriP)	OriP maintenance, dependence on nonamer binding sites (OriP)	stability of the EBV genome in cells (EBV genome)	transient replication of episomal plasmids (episomal plasmids)	TRF1 association with OriP (TRF1)	OriP-associated S10 phosphorylation of histone H3 (histone H3)	plasmid maintenance of OriP (OriP)	MCM3 binding to DS (MCM3)	other results
NC(=O)c1cccc(N)c1 [3-AB, 3-aminobenzamide]	stabilize long term maintenance	enhanced plasmid maintenance was dependent upon the nonamer binding sites in OriP	enhanced the stability of the EBV genome	weakly inhibit transient replication	–	–	–	–	–
OO [H2O2, hydrogen peroxide]	–	–	–	–	TRF1 binding was reduced	inhibited H3 acetylation and S10 phosphorylation	–	–	OriP-associated histone H3 acetylation (histone H3): inhibited H3 acetylation
NC(=O)c1ccc[n+]([C@@H]2O[C@H](COP(=O)([O-])OP(=O)(O)OC[C@H]3O[C@@H](n4cnc5c(N)ncnc54)[C@H](O)[C@@H]3O)[C@@H](O)[C@H]2O)c1 [NAD]	–	–	–	–	–	–	–	–	association of EBNA1 with DS (EBNA1 [1]): strong inhibit the association of EBNA1
NC(=O)NO [hydroxyurea]	–	–	decreased the stability of the EBV genome	–	reduced TRF1 association	inhibited S10 phosphorylation of histone H3	decreased the maintenance of the OriP plasmid	decrease in EBNA1 and MCM3 association	EBNA1 binding to DS (EBNA1 [2]): decrease in EBNA1 and MCM3 association; hRap1 association with OriP (hRap1): not EBNA1 or hRap1; EBNA1 association with OriP (EBNA1 [3]): not EBNA1
NC(=O)c1cccnc1 [niacinamide]	stabilize long term maintenance	enhanced plasmid maintenance was dependent upon the nonamer binding sites in OriP	enhanced stability of the EBV genome	weakly inhibit transient replication	–	–	increased OriP maintenance	increased the MCM3 binding relative to EBNA1	–
